The structures appear in SMILES notation. Like-named read-outs stand apart in the source and are kept apart here. A value given as a limit tells only on which side of the number the result lay.

The assay addresses T1, F508delCFTR (Homo sapiens, UniProt P13569, DEL508-508).
T1 construct: expressed in transfected cells; host or cells: CFBE41o- human lung-derived epithelial cells (CFBE4lo-F508delCFTR-HRP), doxycycline-inducible
As to the kind of experiment: Cell Surface Expression-Horse Radish Peroxidase (CSE-HRP) Assay.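 On Maximum % activity (with co-corrector): co-corrector and positive control are both the same reference corrector at 2 µM.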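 On Maximum % activity (without co-corrector): percent of the 2 µM on-plate positive control corrector response above DMSO.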 In kind it is cell-based. To be noted: CSE-HRP; for Maximum % activity (with co-corrector): with co-corrector (2 μM); for Maximum % activity (with co-corrector) / Emax: maximum at any tested concentration, normalized to on-plate positive control; for Emax: without co-corrector, read-out: Maximum % activity (without co-corrector). As for the experimental part:
Cell Surface Expression-Horse Radish Peroxidase (CSE-HRP) Assay;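 on Maximum % activity (with co-corrector): co-corrector and positive control are both the same reference corrector at 2 µM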;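 on Maximum % activity (without co-corrector): percent of the 2 µM on-plate positive control corrector response above DMSO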
The development was achieved by expressing the F508delCFTR mutation along with a horseradish peroxidase (HRP) in the fourth exofacial loop, and then measuring the HRP activity using luminescence readout from these cells, CFBE4lo-F508delCFTR-HRP, that were incubated overnight with the test corrector compounds, either without or with the co-corrector. […] The test compounds were then added either without or with a co-corrector at the required concentrations and further incubated for 18-24 hours at 33° C. The highest concentration tested was 20 μM with an 8-point concentration response curve using a 3-fold dilution in both the test compound without or with the co-corrector. Three replicate plates were run to determine one EC50. All plates contained negative controls (dimethyl sulfoxide, DMSO) and positive control (2 μM of 3-[(2R,4R)-4-({[1-(2,2-difluoro-1,3-benzodioxol-5-yl)cyclopropyl]carbonyl}amino)-7-methoxy-3,4-dihydro-2H-chromen-2-yl]benzoic acid) as well as on-plate concentration response of the positive control. […] The raw counts from the experiment were analyzed using Accelrys® Assay Explorer v3.3.
1−[3*SDPositive Control+3*SDNegative Control/Absolute(MeanPositive Control−MeanNegative Control)]
wherein “SD” is standard deviation.
The % activity measured at each of the 8 test concentrations of the test compound added either without or with a co-corrector (2 μM of 3-[(2R,4R)-4-({[1-(2,2-difluoro-1,3-benzodioxol-5-yl)cyclopropyl]carbonyl}amino)-7-methoxy-3,4-dihydro-2H-chromen-2-yl]benzoic acid) was normalized to the on-plate positive control using the following formulae:
% activity(Test compound without co-corrector)=[(test compound without co-corrector response−DMSO response)/(positive control response−DMSO response)]*100
% activity(Test compound with co-corrector)=[(test compound with co-corrector response−DMSO response)/(positive control response−DMSO response)]*100
The maximum % activity achieved for the test compound either without or with a co-corrector at any tested concentration is presented in Table 4 along with the respective EC50's calculated using the following general sigmoidal curve with variable Hill slope equation (described as Model 42 in the Accelrys® Assay Explorer v3.3 software):
General sigmoidal curve with concentration, response, top, bottom, EC50 and Hill slope. This model describes a sigmoidal curve with an adjustable baseline, a. The equation can be used to fit curves where response is either increasing or decreasing with respect to the independent variable, “x”.
“x” is a concentration of drug under test. “y” is the response. “a” is the maximum response, and “d” is the minimum response “c” is the inflection point (EC50) for the curve. That is, “y” is halfway between the lower and upper asymptotes when x=c. “b” is the slope-factor or Hill coefficient. The sign of b is positive when the response increases with increasing dose and is negative when the response decreases with increasing dose (inhibition).

Setting [1] is: test compound without co-corrector, read-out: EC50 (without co-corrector).
Where [2] appears, read: with co-corrector (2 μM of 3-[(2R,4R)-4-({[1-(2,2-difluoro-1,3-benzodioxol-5-yl)cyclopropyl]carbonyl}amino)-7-methoxy-3,4-dihydro-2H-chromen-2-yl]benzoic acid), read-out: EC50 (with co-corrector).

T1 sequence (P13569 with tags, fused parts or gaps DEL508-508): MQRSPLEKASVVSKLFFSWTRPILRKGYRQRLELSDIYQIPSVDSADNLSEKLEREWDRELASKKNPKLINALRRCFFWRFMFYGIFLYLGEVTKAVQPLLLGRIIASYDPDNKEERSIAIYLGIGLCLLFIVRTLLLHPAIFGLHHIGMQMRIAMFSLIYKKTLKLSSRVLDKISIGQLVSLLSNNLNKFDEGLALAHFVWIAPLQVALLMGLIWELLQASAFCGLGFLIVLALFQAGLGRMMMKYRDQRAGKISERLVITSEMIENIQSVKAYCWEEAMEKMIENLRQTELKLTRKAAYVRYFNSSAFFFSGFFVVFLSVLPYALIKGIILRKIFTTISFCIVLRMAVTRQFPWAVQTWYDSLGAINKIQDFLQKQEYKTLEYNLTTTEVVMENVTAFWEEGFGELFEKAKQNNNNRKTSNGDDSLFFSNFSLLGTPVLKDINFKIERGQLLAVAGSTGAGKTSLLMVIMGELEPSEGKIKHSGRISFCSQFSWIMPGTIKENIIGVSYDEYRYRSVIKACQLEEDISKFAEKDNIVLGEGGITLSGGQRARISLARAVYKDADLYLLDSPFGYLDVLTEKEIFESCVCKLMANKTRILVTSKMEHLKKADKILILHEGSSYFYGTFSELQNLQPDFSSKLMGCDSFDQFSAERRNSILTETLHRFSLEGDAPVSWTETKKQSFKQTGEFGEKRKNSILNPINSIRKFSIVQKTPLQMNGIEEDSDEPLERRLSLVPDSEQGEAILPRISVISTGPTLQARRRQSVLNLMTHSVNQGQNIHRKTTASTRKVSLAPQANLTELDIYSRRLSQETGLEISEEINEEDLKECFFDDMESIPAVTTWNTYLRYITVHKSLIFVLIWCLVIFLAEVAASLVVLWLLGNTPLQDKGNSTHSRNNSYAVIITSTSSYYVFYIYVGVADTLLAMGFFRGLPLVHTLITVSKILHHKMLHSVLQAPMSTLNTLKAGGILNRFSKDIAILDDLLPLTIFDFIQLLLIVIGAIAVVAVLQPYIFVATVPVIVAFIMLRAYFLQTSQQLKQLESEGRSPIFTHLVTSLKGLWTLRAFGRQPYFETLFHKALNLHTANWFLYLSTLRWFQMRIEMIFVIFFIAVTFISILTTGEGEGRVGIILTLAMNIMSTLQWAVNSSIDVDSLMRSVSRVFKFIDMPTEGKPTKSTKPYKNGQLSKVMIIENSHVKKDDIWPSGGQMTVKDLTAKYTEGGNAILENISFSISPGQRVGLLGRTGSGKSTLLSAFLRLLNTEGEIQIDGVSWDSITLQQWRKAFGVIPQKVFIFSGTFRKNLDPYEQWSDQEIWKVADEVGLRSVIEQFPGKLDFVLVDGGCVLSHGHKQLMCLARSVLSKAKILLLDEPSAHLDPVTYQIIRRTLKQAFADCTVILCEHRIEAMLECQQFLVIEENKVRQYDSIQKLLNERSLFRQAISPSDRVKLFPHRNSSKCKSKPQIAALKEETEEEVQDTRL

Regarding `COc1cc(Cl)ccc1CN[C@@H]1[C@@H](C(C)(C)C)[C@H](C(=O)O)N(C(=O)[C@@H]2CCC[C@@H](OC)C2)[C@@H]1c1ccccc1` (racemic) [II-38], the “Maximum % activity (with co-corrector)” value is “+++ (≥350)” and the Emax lay within 100 to 200%. For the same molecule, the EC50 – broadly, the midpoint of the concentration-response curve – under setting [1] lay in the range of 1 to 10 µM. Further, the EC50 under setting [2] was 1 to 10 µM.
Consider `COc1cc(F)ccc1CN[C@@H]1[C@@H](C(C)(C)C)[C@H](C(=O)O)N(C(=O)OC(C)C)[C@@H]1c1ccccc1` (racemic) [II-39], for which the “Maximum % activity (with co-corrector)” value is reported as “+++ (≥350)” and the Emax is 100 to 200%. The EC50 under setting [1] was 1 to 10 µM. Further, the EC50 under setting [2] was 1 to 10 µM.
Turning to `COc1ccc(C)cc1CN[C@@H]1[C@@H](C(C)(C)C)[C@H](C(=O)O)N(C(=O)OC(C)C)[C@@H]1c1ccccc1` (racemic) [II-40], the “Maximum % activity (with co-corrector)” value is on record as “+++ (≥350)” and the Emax was in the range of 100 to 200%. Also, the EC50 under setting [1] fell in the range of 1 to 10 µM. Besides, the EC50 under setting [2] lay in the range of 1 to 10 µM.
Regarding `COc1cc(OC(F)(F)F)ccc1CN[C@@H]1[C@@H](C(C)(C)C)[C@H](C(=O)O)N(C(=O)OC(C)C)[C@@H]1c1ccccc1` (racemic) [II-41], the “Maximum % activity (with co-corrector)” value was “+++ (≥350)” and the Emax was more than 200%. In addition, the EC50 under setting [1] lay in the range of 1 to 10 µM. For the same molecule, the EC50 under setting [2] was in the range of 1 to 10 µM.
For `COc1ccc(F)cc1CN[C@@H]1[C@@H](C(C)(C)C)[C@H](C(=O)O)N(C(=O)OC(C)C)[C@@H]1c1ccccc1` (racemic) [II-42], the “Maximum % activity (with co-corrector)” value is recorded as “+++ (≥350)” and the Emax was in the range of 100 to 200%. Besides, the EC50 under setting [1] lay in the range of 1 to 10 µM. Under setting [2], the EC50 fell in the range of 1 to 10 µM.
As to `COc1ccc(C(C)(C)C)cc1CN[C@@H]1[C@@H](C(C)(C)C)[C@H](C(=O)O)N(C(=O)OC(C)C)[C@@H]1c1ccccc1` (racemic) [II-43], the “Maximum % activity (with co-corrector)” value was “+++ (≥350)” and the Emax is more than 200%. Moreover, the EC50 under setting [1] was 1 to 10 µM. Besides, the EC50 under setting [2] lay within 1 to 10 µM.
With `COc1ccc(C(C)C)cc1CN[C@@H]1[C@@H](C(C)(C)C)[C@H](C(=O)O)N(C(=O)OC(C)C)[C@@H]1c1ccccc1` (racemic) [II-44], the “Maximum % activity (with co-corrector)” value is given as “+++ (≥350)” and the Emax is more than 200%. The EC50 under setting [1] lay in the range of 1 to 10 µM. Under setting [2], the EC50 was in the range of 1 to 10 µM.
Turning to `COc1cc(Cl)ccc1CN[C@@H]1[C@@H](C(C)(C)C)[C@H](C(=O)O)N(C(=O)OC(C)C)[C@@H]1c1ccccc1` (racemic) [II-45], the “Maximum % activity (with co-corrector)” value is on record as “+++ (≥350)” and the Emax is more than 200%. Also, under setting [1], the EC50 fell in the range of 1 to 10 µM. Moreover, the EC50 under setting [2] is 1 to 10 µM.
In the case of `COc1ccccc1CN[C@@H]1[C@@H](C(C)(C)C)[C@H](C(=O)O)N(C(=O)OC(C)C)[C@@H]1c1ccccc1` (racemic) [II-46], the “Maximum % activity (with co-corrector)” value is reported as “+++ (≥350)” and the Emax was in the range of 100 to 200%. In addition, the EC50 under setting [1] is 1 to 10 µM. Besides, the EC50 under setting [2] fell in the range of 1 to 10 µM.
Take `COc1cc(Cl)ccc1CN[C@H]1[C@H](C(C)(C)C)[C@@H](C(=O)O)N(C(=O)[C@H](OC)c2ccccc2)[C@H]1c1cccnc1N(C)C` (racemic) [II-47]: the “Maximum % activity (with co-corrector)” value is given as “+++ (≥350)” and the Emax was 100 to 200%. The EC50 under setting [1] was in the range of 1 to 10 µM. Moreover, the EC50 under setting [2] lay in the range of 1 to 10 µM.
Take `COc1cc(C(F)(F)F)ccc1CN[C@H]1[C@H](C(C)(C)C)[C@@H](C(=O)O)N(C(=O)[C@H](OC)c2ccccc2)[C@H]1c1cccnc1N(C)C` (racemic) [II-48]: the “Maximum % activity (with co-corrector)” value is on record as “+++ (≥350)” and the Emax lay in the range of 100 to 200%. Further, under setting [1], the EC50 lay in the range of 1 to 10 µM. Also, the EC50 under setting [2] lay within 1 to 10 µM.
For `COc1cc(C(F)(F)F)ccc1CN[C@@H]1[C@@H](C(C)(C)C)[C@H](C(=O)O)N(C(=O)[C@@H]2CCCCO2)[C@@H]1c1ccccc1` (racemic) [II-49], the “Maximum % activity (with co-corrector)” value was “+++ (≥350)” and the Emax fell in the range of 100 to 200%. Under setting [1], the EC50 is 1 to 10 µM. Besides, the EC50 under setting [2] was in the range of 1 to 10 µM.
For `COc1cc(C(F)(F)F)ccc1CN[C@@H]1[C@@H](C(C)(C)C)[C@H](C(=O)O)N(C(=O)C2CCCCC2)[C@@H]1c1cccnc1N(C)C` (racemic) [II-51], the “Maximum % activity (with co-corrector)” value was “+++ (≥350)” and the Emax was in the range of 100 to 200%. Besides, the EC50 under setting [1] is 1 to 10 µM. For the same molecule, the EC50 under setting [2] fell in the range of 1 to 10 µM.
As for `COc1ncc(C(F)(F)F)cc1CN[C@@H]1[C@@H](C(C)(C)C)[C@H](C(=O)O)N(C(=O)C2CCCCC2)[C@@H]1c1cccnc1N(C)C` (racemic) [II-52], the “Maximum % activity (with co-corrector)” value is recorded as “+++ (≥350)” and the Emax was in the range of 100 to 200%. The EC50 under setting [1] is 1 to 10 µM. In addition, under setting [2], the EC50 is 1 to 10 µM.
For the molecule `Cc1cc(C(F)(F)F)cc(N[C@H]2[C@H](C(C)(C)C)[C@@H](C(=O)O)N(C(=O)C3CCCCC3)[C@H]2c2ccccn2)n1` (racemic) [II-53], the “Maximum % activity (with co-corrector)” value was “++ (≥150 and <350)”; the Emax was less than 100%. Also, under setting [1], the EC50 lay in the range of 1 to 10 µM. The 50% effective concentration (EC50) under setting [2] fell in the range of 1 to 10 µM.
In the case of `Cc1cc(C(F)(F)F)cc(N[C@@H]2[C@@H](C(C)(C)C)[C@H](C(=O)O)N(C(=O)Cc3ccccc3)[C@@H]2c2ccccc2)n1` (racemic) [II-55], the “Maximum % activity (with co-corrector)” value was “++ (≥150 and <350)”; the Emax was less than 100%. For the same molecule, under setting [1], the EC50 was more than 10 µM. Moreover, under setting [2], the concentration giving a half-maximal response (EC50) lay in the range of 1 to 10 µM.
As to `COc1ccc(C(F)(F)F)cc1CN[C@@H]1[C@@H](C(C)(C)C)[C@H](C(=O)O)N(C(=O)OC(C)C)[C@@H]1c1ccccc1N(C)C` (racemic) [II-56], the “Maximum % activity (with co-corrector)” value is “+++ (≥350)” and the Emax fell in the range of 100 to 200%. In addition, the EC50 under setting [1] fell in the range of 1 to 10 µM. The EC50 under setting [2] lay within 1 to 10 µM.
`COc1cc(C(F)(F)F)ccc1CN[C@@H]1[C@@H](C(C)(C)C)[C@H](C(=O)O)N(C(=O)OC(C)C)[C@@H]1c1ccccc1N(C)C` (racemic) [II-57]: the “Maximum % activity (with co-corrector)” value was “+++ (≥350)” and the Emax lay in the range of 100 to 200%. In addition, the EC50 under setting [1] is 1 to 10 µM. In addition, the EC50 under setting [2] lay within 1 to 10 µM.
Regarding `COc1ccc(C(F)(F)F)cc1CN[C@H]1[C@H](C(C)(C)C)[C@@H](C(=O)O)N(C(=O)C2CCCO2)[C@H]1c1ccccc1` (mixture of isomers) [II-59], the “Maximum % activity (with co-corrector)” value was “+++ (≥350)” and the Emax lay in the range of 100 to 200%. In addition, the EC50 under setting [1] lay in the range of 1 to 10 µM. Besides, under setting [2], the EC50 lay within 1 to 10 µM.
For the molecule `COc1cc(C(F)(F)F)ccc1CN[C@H]1[C@H](C(C)(C)C)[C@@H](C(=O)O)N(C(=O)C2CCCO2)[C@H]1c1ccccc1` (mixture of isomers) [II-60], the “Maximum % activity (with co-corrector)” value is listed as “+++ (≥350)” and the Emax is 100 to 200%. Under setting [1], the EC50 was 1 to 10 µM. Under setting [2], the EC50 fell in the range of 1 to 10 µM.
For `COc1ccc(Cl)cc1CN[C@H]1[C@H](C(C)(C)C)[C@@H](C(=O)O)N(C(=O)C2CCCO2)[C@H]1c1ccccc1` (mixture of isomers) [II-61], the “Maximum % activity (with co-corrector)” value is “+++ (≥350)” and the Emax fell in the range of 100 to 200%. Besides, the EC50 under setting [1] was 1 to 10 µM. Besides, under setting [2], the EC50 fell in the range of 1 to 10 µM.
For the molecule `COc1ccc(C(F)(F)F)cc1CN[C@@H]1[C@@H](C(C)(C)C)[C@H](C(=O)O)N(C(=O)[C@@H](C)Oc2ccccc2)[C@@H]1c1ccccc1` (racemic) [II-66], the “Maximum % activity (with co-corrector)” value is “++ (≥150 and <350)”; the Emax is less than 100%. Also, the EC50 under setting [1] fell in the range of 1 to 10 µM. Further, the EC50 under setting [2] lay in the range of 1 to 10 µM.
Regarding `COc1ccc(C(F)(F)F)cc1CN[C@@H]1[C@@H](C(C)(C)C)[C@H](C(=O)O)N(C(=O)C2CCC(F)(F)CC2)[C@@H]1c1ccccc1` (racemic) [II-68], the “Maximum % activity (with co-corrector)” value is on record as “+++ (≥350)” and the Emax is less than 100%. Also, the EC50 under setting [1] was 1 to 10 µM. Moreover, under setting [2], the EC50 was 1 to 10 µM.
